From patent publication US9700565B2, “Method of treating mixed lineage leukemia gene-rearranged acute lymphoblastic leukemias” (Dana-Farber Cancer Institute, Inc., priority 2003, dated 2017) come the findings set out here.

One assay concerns SEMK2-M1. The experiment in a line: In vivo xenograft model of MLL rearranged ALL with bioluminescent imaging, SEMK2-M1 cells. Conditions: 150 mg/kg once daily via gavage, 5 days per week. Details: species or system SCID-beige mice. On the procedure:
(§1) To determine if PKC412 is effective against an in vivo model of MLL rearranged ALL, a xenograft model system in which leukemia burden can be quantitated with in vivo bioluminescent imaging is established. SEMK2-M1 and RS4; 11 (ATCC Number: CRL-1873) cell lines are engineered to express firefly luciferase fused to neomycin phosphotransferase by retroviral transduction. One million leukemia cells are then injected into the tail vein of SCID-beige mice. Within 1 week, the bioluminescent signal is detectable in a location consistent with the femur. Pathologic analysis of similarly xenografted mice confirm that the leukemia cells are initially found in the mouse bone marrow present in the femoral head. The leukemia subsequently progresses to replace the normal bone marrow and involve other organs, thus mimicking the progression of human leukemia. Once the leukemia had engrafted, as can be determined by the presence of a bioluminescent signal, a cohort of mice is treated with either 150 mg/kg PKC412 or vehicle once daily via gavage for 5 days per week. Serial imaging of the two cohorts is then performed to quantitate disease burden. […] Thus, oral administration of PKC412 is effective in vivo against human lymphoblastic leukemia with an MLL rearranged ALL arrangement and activated FLT3.

A further assay concerns RS4; 11. The experiment in a line: In vivo xenograft model of MLL rearranged ALL with bioluminescent imaging, RS4; 11 cells. The note with it: SCID-beige mice injected with RS4; 11 cells (does not over-express FLT3); 150 mg/kg once daily via gavage, 5 days per week. On the procedure:
as §1

With `CO[C@@H]1[C@H](N(C)C(=O)c2ccccc2)C[C@H]2O[C@]1(C)n1c3ccccc3c3c4c(c5c6ccccc6n2c5c31)C(=O)NC4` [PKC412, N-benzoyl-staurosporine], the “quantification of total leukemic burden (bioluminescent imaging)” value with SEMK2-M1 (SCID-beige mice engrafted with SEMK2-M1 cells (over-expresses FLT3), after 2 weeks of therapy) is “anti-tumor efficacy”. Also, the “tumor burden by pathological analysis at completion of the study” value with SEMK2-M1 (SEMK2-M1 injected mice, compared to control mice) is reported as “vast differences in tumor burden”. Moreover, in the assay with RS4; 11, the “anti-tumor effect on leukemia (bioluminescent imaging)” value is listed as “no effect”.
